According to EP0731697B1, “SSI TYRPHOSTINS AND PHARMACEUTICAL COMPOSITIONS” (priority 1993, dated 1995):
Like-named read-outs stand apart in the source and are kept apart here.

Tests used:
[1] = tested on: murine peritoneal macrophages; test: NO2- production by periodate-activated murine peritoneal macrophages; format: cell-based
Experimental: Nitrite (NO2-) levels were determined in supernatants at the time indicated, as described herein. (Table 5) Values are expressed as means of triplicate cultures. […] Two additional experiments yielded similar results.
NO2- the product of NO oxidation is used to determine NO produced. Nitrite concentration in supernatants of macrophages was measured by a microplate assay method. 100 ul aliquots of supernatants were incubated with an equal volume of Griess reagent (1% sulfanilamide/O.1% naphthylethylene diamine dihydrochloride/2.5% H3PO4) at room temperature for 10 min. The absorbance at 550nm was determined in a microplate reader. Sodium nitrite was used as a standard.
Mice were injected i.p. with 1 ml sodium periodate (5mM). Three to 4 days later, macrophages were washed from the peritoneal cavity with PBS. After centrifugation at 170g for 10 min at […], the cell pellet was resuspended in RPMI 1640 containing 10% heat-inactivated new born calf serum. Adherent macrophage monolayers were obtained by plating the cells in 96-well plastic trays at 4x10^5 cells/well for 2 hr at 37°C in 5% CO2/air. Nonadherent cells were removed by suction and complete medium was added. […]

[2] = tested on: Murine fibroblastic cells (A9); conditions: for Protection Against TNF-α-Induced Cytotoxicity (cell viability): 1440 min
Experimental: Tyrphostins at different concentration were added 2 hr prior to TNF. After 24 hrs cells viability was determined by vital staining using neutral red.
Recombinant human TNFα is added to a mouse fibroblastic cell line (A9), cultured in the presence of cyclohexamine and cell viability is monitored after 20 hours. […] The percentage of live cells was measured from 2 hours prior to administration until 4 hours after administration for a control and for TNF at concentrations of 0.2 ng/ml, 0.05 ng/ml, and 1.0 ng/ml.

EGF receptor = EGF receptor (Homo sapiens, UniProt P00533); conditions: even at concentrations above 100 uM; cited from earlier work
Her-2/neu receptor = Her-2/neu receptor (Homo sapiens, UniProt P04626); conditions: even at concentrations above 100 uM; cited from earlier work
PDGFR = conditions: even at concentrations above 100 uM; cited from earlier work
TNF-α [3] = test: LPS-induced production of TNF-α by activated murine peritoneal macrophages in vitro
Experimental: The amount of TNF-α was quantitated by assessing the extent of killing of the TNF-α sensitive cell line (A9) essentially as described by Ruff and Gilford, G. E. J. Immunol. […] Briefly, mouse A9 fibroblasts were plated in 96-well flat-bottom micro-titer plates at 30,000 cells /0.1 ml to establish a dense monolayer. After incubation for 24 hr at 37 C in a humidified 5% CO2 atmosphere, cycloheximide was added to a final concentration of 50 ug/ml and 100 ul of serially diluted test samples were added to the wells. After incubation for additional 18 hr the supernatants were carefully aspirated, the monolayer were washed twice with PBS and 200 ul of neutral red solution (0.02%) was added. After incubation for 2 hr, cells were washed and the dye that had been absorbed by the live cells was extracted using 200 ul of 50% ethanol. The concentration of the dye was determined by an ELISA autoreader using a 550 nm filter. Murine TNF-α ELISA kit from ENDOGEN Inc., was used for quancitation of murine TNF-α.
Mice were injected i.p. with 1 ml sodium periodate (5mM). Three to 4 days later, macrophages were washed from the peritoneal cavity with PBS. After centrifugation at 170g for 10 min at 40° C, the cell pellet was resuspended in RPMI 1640 containing 10% heat-inactivated new born calf serum. Adherent macrophage monolayers were obtained by plating the cells in 96-well plastic trays at 4x10^5 cells/well for 2 hr at 37°C in 5% CO2/air. Nonadherent cells were removed by suction and complete medium was added.

TNF-α [4] = test: LPS induced increase in serum TNF-α levels in mice; format: in vivo
Description: TNF-α was implicated to mediate many of the toxic effect of LPS. For example, the effect of SSI 3 on serum TNF-α levels in mice which had been treated with LPS was investigated. LPS induced a rapid increase in serum TNF-α levels. […] […] The bioassay gave somewhat higher levels compared to the ELISA. This finding may indicate that the serum from LPS-treated mice contained in addition to TNF-α, other cytotoxic factors.
The amount of TNF-α was quantitated by assessing the extent of killing of the TNF-α sensitive cell line (A9) essentially as described by Ruff and Gilford, G. E. J. Immunol. 125, 1671-1677, (1980). Briefly, mouse A9 fibroblasts were plated in 96-well flat-bottom micro-titer plates at 30,000 cells /0.1 ml to establish a dense monolayer. After incubation for 24 hr at 37 C in a humidified 5% CO2 atmosphere, cycloheximide was added to a final concentration of 50 ug/ml and 100 ul of serially diluted test samples were added to the wells. After incubation for additional 18 hr the supernatants were carefully aspirated, the monolayer were washed twice with PBS and 200 ul of neutral red solution (0.02%) was added. After incubation for 2 hr, cells were washed and the dye that had been absorbed by the live cells was extracted using 200 ul of 50% ethanol. The concentration of the dye was determined by an ELISA autoreader using a 550 nm filter. Murine TNF-α ELISA kit from ENDOGEN Inc., was used for quancitation of murine TNF-α.

mice = test: LPS-induced lethal toxicity in mice; conditions: for mice alive after 7 days: 100 ug/mouse 2 hours before or after LPS
[5] = Solubility in aqueous solution; format: physicochemical
[6] = LPS 200 µg/mouse, AG 300 µg/mouse 2 hrs prior to LPS, 1hr, mean (two single values)
[7] = LPS 200 µg/mouse, AG 300 µg/mouse 2 hrs prior to LPS, 2hr, mean (two single values)
[8] = no LPS (-), AG 300 µg/mouse, 1hr

Sequence of EGF receptor (P00533 25-1210): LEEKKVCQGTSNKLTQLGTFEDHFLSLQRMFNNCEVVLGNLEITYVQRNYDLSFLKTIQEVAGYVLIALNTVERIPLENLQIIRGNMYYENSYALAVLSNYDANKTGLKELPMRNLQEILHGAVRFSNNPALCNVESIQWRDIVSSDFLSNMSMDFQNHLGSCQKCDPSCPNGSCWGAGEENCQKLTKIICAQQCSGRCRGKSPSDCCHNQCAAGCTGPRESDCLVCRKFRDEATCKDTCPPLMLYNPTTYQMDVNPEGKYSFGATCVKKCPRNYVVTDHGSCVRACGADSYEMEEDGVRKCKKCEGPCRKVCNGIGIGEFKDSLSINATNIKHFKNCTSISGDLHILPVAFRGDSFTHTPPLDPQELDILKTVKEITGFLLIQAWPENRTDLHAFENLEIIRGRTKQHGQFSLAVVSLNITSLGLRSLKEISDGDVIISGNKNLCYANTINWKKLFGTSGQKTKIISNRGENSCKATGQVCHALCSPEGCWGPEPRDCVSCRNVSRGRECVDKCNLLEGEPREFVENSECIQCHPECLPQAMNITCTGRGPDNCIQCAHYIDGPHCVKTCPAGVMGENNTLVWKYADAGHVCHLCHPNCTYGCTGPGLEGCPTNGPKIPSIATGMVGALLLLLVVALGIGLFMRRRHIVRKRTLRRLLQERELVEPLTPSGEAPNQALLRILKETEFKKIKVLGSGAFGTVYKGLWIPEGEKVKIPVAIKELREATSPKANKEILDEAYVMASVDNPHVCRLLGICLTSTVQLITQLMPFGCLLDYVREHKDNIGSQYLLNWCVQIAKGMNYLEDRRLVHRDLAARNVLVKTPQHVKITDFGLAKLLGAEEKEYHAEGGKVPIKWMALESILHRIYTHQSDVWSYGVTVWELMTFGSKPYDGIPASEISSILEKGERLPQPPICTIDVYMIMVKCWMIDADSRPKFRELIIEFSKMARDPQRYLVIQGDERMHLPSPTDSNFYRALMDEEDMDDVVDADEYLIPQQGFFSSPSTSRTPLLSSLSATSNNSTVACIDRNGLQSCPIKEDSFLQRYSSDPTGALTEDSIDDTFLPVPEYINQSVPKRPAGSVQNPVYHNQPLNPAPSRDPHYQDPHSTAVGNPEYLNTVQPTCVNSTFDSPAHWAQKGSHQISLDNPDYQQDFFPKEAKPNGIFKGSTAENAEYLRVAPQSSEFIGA
Sequence of Her-2/neu receptor (P04626 23-1255): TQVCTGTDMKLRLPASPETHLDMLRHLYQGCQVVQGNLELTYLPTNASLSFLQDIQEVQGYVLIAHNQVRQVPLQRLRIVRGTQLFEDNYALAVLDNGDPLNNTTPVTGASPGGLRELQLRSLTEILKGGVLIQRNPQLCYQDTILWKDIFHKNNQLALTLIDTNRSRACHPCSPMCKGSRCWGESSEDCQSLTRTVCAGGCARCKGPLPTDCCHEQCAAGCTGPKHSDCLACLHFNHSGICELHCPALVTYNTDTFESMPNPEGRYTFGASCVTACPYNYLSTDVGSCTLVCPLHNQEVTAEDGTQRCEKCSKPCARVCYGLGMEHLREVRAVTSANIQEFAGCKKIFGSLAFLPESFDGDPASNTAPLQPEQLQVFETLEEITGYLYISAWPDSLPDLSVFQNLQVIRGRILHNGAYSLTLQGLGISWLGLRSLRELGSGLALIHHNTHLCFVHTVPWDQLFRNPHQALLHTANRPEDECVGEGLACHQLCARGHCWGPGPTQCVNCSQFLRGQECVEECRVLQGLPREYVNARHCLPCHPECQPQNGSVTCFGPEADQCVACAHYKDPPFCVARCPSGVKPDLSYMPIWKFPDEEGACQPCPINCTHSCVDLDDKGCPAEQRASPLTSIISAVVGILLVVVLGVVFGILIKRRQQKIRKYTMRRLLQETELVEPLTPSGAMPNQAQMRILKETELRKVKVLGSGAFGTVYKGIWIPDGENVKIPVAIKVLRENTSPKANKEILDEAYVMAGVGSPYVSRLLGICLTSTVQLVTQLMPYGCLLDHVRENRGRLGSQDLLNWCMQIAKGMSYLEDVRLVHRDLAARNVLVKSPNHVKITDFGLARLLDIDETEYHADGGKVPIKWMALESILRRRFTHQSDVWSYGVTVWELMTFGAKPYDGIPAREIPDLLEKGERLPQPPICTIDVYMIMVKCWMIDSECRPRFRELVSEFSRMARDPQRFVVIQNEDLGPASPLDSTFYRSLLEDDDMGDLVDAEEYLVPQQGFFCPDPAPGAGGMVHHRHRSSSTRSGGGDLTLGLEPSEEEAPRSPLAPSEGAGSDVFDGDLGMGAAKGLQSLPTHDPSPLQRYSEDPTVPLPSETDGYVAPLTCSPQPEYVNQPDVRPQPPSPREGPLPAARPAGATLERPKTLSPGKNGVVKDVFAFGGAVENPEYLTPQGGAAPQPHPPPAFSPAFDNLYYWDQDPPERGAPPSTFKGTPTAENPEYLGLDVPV

N#CC(C#N)=Cc1cc(O)c(O)c([N+](=O)[O-])c1 [SSI 8]
NO2- production in unstimulated and LPS-stimulated periodate-activated murine macrophages ([1]; LPS (10 mg/ml)): effectively inhibited
NO2- Production by Macrophages ([1]; SSI 20 uM, LPS 10 ug, 1 DAY): 42,7 µg
NO2- Production by Macrophages ([1]; SSI 20 uM, LPS 10 ug, 2 DAY): 80,6 µg
NO2- Production by Macrophages ([1]; SSI 20 uM, LPS 10 ug, 3 DAY): 83,4 µg
NO2- Production by Macrophages ([1]; SSI 20 uM, no LPS, 1 DAY): 10,4 µg
NO2- Production by Macrophages ([1]; SSI 20 uM, no LPS, 2 DAY): 13,5 µg
NO2- Production by Macrophages ([1]; SSI 20 uM, no LPS, 3 DAY): 11,8 µg
NO2- Production by Macrophages ([1]; SSI 50uM, LPS 10 ug, 1 DAY): 6,4 µg
NO2- Production by Macrophages ([1]; SSI 50uM, LPS 10 ug, 2 DAY): 11,5 µg
NO2- Production by Macrophages ([1]; SSI 50uM, LPS 10 ug, 3 DAY): 22,4 µg
NO2- Production by Macrophages ([1]; SSI 50 uM, no LPS, 1 DAY): 5,8 µg
NO2- Production by Macrophages ([1]; SSI 50 uM, no LPS, 2 DAY): 8,1 µg
NO2- Production by Macrophages ([1]; SSI 50 uM, no LPS, 3 DAY): 5,9 µg
blocking TNF-α induced cytotoxicity in vitro [2]: active
Protection Against TNF-α-Induced Cytotoxicity (cell viability) ([2]; TNF-α 0 ng/ml): 100
Protection Against TNF-α-Induced Cytotoxicity (cell viability) ([2]; TNF-α 0.2 ng/ml, none 41±2.3): 67±4.1
Protection Against TNF-α-Induced Cytotoxicity (cell viability) ([2]; TNF-α 0.5 ng/ml, none 20±1.7): 46+2.8
effect on EGF receptor (EGF receptor): no effect
effect on Her-2/neu receptor (Her-2/neu receptor): no effect
effect on PDGFR (PDGFR): no effect
TNF-α (TNF-α [3]; LPS +): <5 pg/mL
TNF-α (TNF-α [3]; LPS -): <5 pg/mL
ability to inhibit LPS-induced production of TNF-α by activated murine peritoneal macrophages in vitro (TNF-α [3]; among the tyrphostins tested): most potent

N#CC(=Cc1cc(O)c(O)c([N+](=O)[O-])c1)C(=O)O [SSI 9]
Serum TNF-α (TNF-α [4]; [6]): 17.7 (17.3, 18.2) ng/ml
Serum TNF-α (TNF-α [4]; [7]): 11.1 (10.5, 11.7) ng/ml
Serum TNF-α (TNF-α [4]; [8]): 16.0 ng/mL
NO2- Production by Macrophages ([1]; SSI 20 uM, LPS 10 ug, 1 DAY): 71,3 µg
NO2- Production by Macrophages ([1]; SSI 20 uM, LPS 10 ug, 2 DAY): 112,9 µg
NO2- Production by Macrophages ([1]; SSI 20 uM, LPS 10 ug, 3 DAY): 136 µg
NO2- Production by Macrophages ([1]; SSI 20 uM, no LPS, 1 DAY): 41,8 µg
NO2- Production by Macrophages ([1]; SSI 20 uM, no LPS, 2 DAY): 57,2 µg
NO2- Production by Macrophages ([1]; SSI 20 uM, no LPS, 3 DAY): 45,1 µg
NO2- Production by Macrophages ([1]; SSI 50 uM, no LPS, 1 DAY): 36 µg
NO2- Production by Macrophages ([1]; SSI 50 uM, no LPS, 2 DAY): 51 µg
NO2- Production by Macrophages ([1]; SSI 50 uM, no LPS, 3 DAY): 33 µg
blocking TNF-α induced cytotoxicity in vitro [2]: not
TNF-α (TNF-α [3]; LPS +): 17 pg/mL
TNF-α (TNF-α [3]; LPS -): <5 pg/mL

N#CC(=Cc1cc(O)c(O)c([N+](=O)[O-])c1)C(=O)NCCCc1ccccc1 [SSI 10]
Serum TNF-α (TNF-α [4]; [6]): 18.7 (23.2, 19.2) ng/ml
Serum TNF-α (TNF-α [4]; [7]): 12.9 (13.6, 12.2) ng/ml
Serum TNF-α (TNF-α [4]; [8]): 14.0 ng/mL
NO2- Production by Macrophages ([1]; SSI 20 uM, LPS 10 ug, 1 DAY): 42,3 µg
NO2- Production by Macrophages ([1]; SSI 20 uM, LPS 10 ug, 2 DAY): 100,9 µg
NO2- Production by Macrophages ([1]; SSI 20 uM, LPS 10 ug, 3 DAY): 124,9 µg
NO2- Production by Macrophages ([1]; SSI 20 uM, no LPS, 1 DAY): 23,4 µg
NO2- Production by Macrophages ([1]; SSI 20 uM, no LPS, 2 DAY): 27,9 µg
NO2- Production by Macrophages ([1]; SSI 20 uM, no LPS, 3 DAY): 44,6 µg
NO2- Production by Macrophages ([1]; SSI 50 uM, no LPS, 1 DAY): 23,3 µg
NO2- Production by Macrophages ([1]; SSI 50 uM, no LPS, 2 DAY): 12,3 µg
NO2- Production by Macrophages ([1]; SSI 50 uM, no LPS, 3 DAY): 13,2 µg

N#CC(=Cc1ccc(O)c(O)c1)C(=O)NCc1ccccc1 [SSI 16]
LPS induced NO production ([1]; 50 um, added 2 hours prior to LPS, 24 hours): markedly inhibit
NO production ([1]; 50 um, from an initial level of 70 uM (no LPS), 24 hours): ~30 µM
NO production ([1]; 50 um, from an initial level of 40 (10 ug/ml of LPS), 24 hours): approximately 20 uM
more active in inhibiting TNF-α cytotoxicity in vitro [2]: two to three fold
TNF toxicity (percentage of live cells) ([2]; SSI 3 50 uM, SSI 16 2 uM, SSI 17 2 and 10 uM, A9 cells with cyclohexamine, viability after 20 hours, TNF 0.2, 0.05 and 1.0 ng/ml): prevent TNF toxicity to different degrees
Protection Against TNF-α-Induced Cytotoxicity (cell viability) ([2]; TNF-α 0 ng/ml): 100
Protection Against TNF-α-Induced Cytotoxicity (cell viability) ([2]; TNF-α 0.2 ng/ml, none 41±2.3): 41±4.3
Protection Against TNF-α-Induced Cytotoxicity (cell viability) ([2]; TNF-α 0.5 ng/ml, none 20±1.7): 23±2.0
LPS induced toxicity in vivo (mice; 400 ug/mouse over 7 days with 10 mice): does not prevent

N#CC(=Cc1ccc([N+](=O)[O-])c(O)c1)C(=O)NCCCc1ccccc1 [SSI 19]
preventing TNF toxicity ([2]; 2 and 10 uM): effective
toxicity to the indicator A9 cells ([2]; 50 um, by itself): toxic
Protection Against TNF-α-Induced Cytotoxicity (cell viability) ([2]; TNF-α 0 ng/ml): 100
Protection Against TNF-α-Induced Cytotoxicity (cell viability) ([2]; TNF-α 0.2 ng/ml, none 41±2.3): 42±3.7
Protection Against TNF-α-Induced Cytotoxicity (cell viability) ([2]; TNF-α 0.5 ng/ml, none 20±1.7): 18±2.6

N#CC(=Cc1ccc([N+](=O)[O-])c(O)c1)C(=O)NCCCCc1ccccc1 [SSI 23]
behaviour after dilution of the stock (made in DMSO) in PBS [5]: rapidly precipitates
solubility in aqueous solution [5]: very soluble
preventing TNF toxicity in vitro ([2]; 50um, added at the same time, 1 hour prior to, or late (2hr) after the addition of TNF): effective
mice alive after 7 days (mice; 2.2 mg LPS/mouse, LPS alone 1 alive): 4 out of 5 mice
mice alive after 7 days (mice; 2.5 mg LPS/mouse, LPS alone 0 alive after 1 day): 2 out of 5 mice
induced lethality (mice; even when administered late after LPS): prevent
